Results: patent US5288709A, “Erythromycin derivatives” (priority 1991, dated 1994)
Values after ≈ are worked out from the molar mass of the structure shown. Like-named read-outs stand apart in the source and are kept apart here.

Assays:
Assay in all cases: In-vitro antimicrobial activity primary screen (agar dilution MIC)
Assay type in all cases: cell-based
[1] = system: Enterobacter aerogenes ATCC 13048; details: Klebsiella aerogenes, ATCC13048; Enterobacter aerogenes ATCC 13048; BHI agar, 20-24 h; read-out: MIC
Method: (§1) The antimicrobial spectra of several of the compounds of the present invention were tested as described below.
(§2) Twelve petri dishes containing successive aqueous dilutions of the test compounds, mixed with 10 mL of sterilized Brain Heart Infusion (BHI) agar (Difco 0418-01-5), were prepared. Each plate was inoculated with 1:100 (or 1:10 for slow growing strains (primarily Micrococcus and Streptococcus) dilutions of up to 32 different microorganisms, using a Steers replicator block. The inoculated plates were incubated at 35 37° C. for 20-24 hours. In addition, a control plate, using BHI agar containing no test compound, was prepared and incubated at the beginning and the end of each test.
(§3) An additional plate containing a compound having known susceptibility patterns for the organisms being tested and belonging to the same antibiotic class as the test compounds was also prepared and incubated as a further control, as well as to provide test-to test comparability.
(§4) After incubation, each plate was read. The MIC (minimum inhibitory concentration) is defined as the lowest concentration of test compound yielding no growth, a slight haze, or sparsely isolated colonies on the inoculum spot as compared to the growth control containing no test compound.

[2] = system: Enterococcus faecium ATCC 8043; details: Enterococcus faecium, ATCC8043, 24 h
Method: as §1, §2, §3, §4

Escherichia coli DC-2 = details: DC2; Escherichia coli DC-2; BHI agar, 20-24 h; read-out: MIC
Method: as §1, §2, §3, §4

Escherichia coli JUHL = details: Escherichia coli JUHL; BHI agar, 20-24 h; read-out: MIC
Method: as §1, §2, §3, §4

Escherichia coli SS = details: BHI agar, 20-24 h
Method: as §1, §2, §3, §4

[3] = system: Klebsiella pneumoniae ATCC 8045; details: ATCC8045; Klebsiella pneumoniae ATCC 8045; BHI agar, 20-24 h; read-out: MIC
Method: as §1, §2, §3, §4

[4] = system: Micrococcus luteus ATCC 4698; details: Micrococcus luteus, ATCC4698, 24 h, BHI agar, 20-24 h
Method: as §1, §2, §3, §4

[5] = system: Micrococcus luteus ATCC 9341; details: 20-24 h
Method: as §1, §2, §3, §4

[6] = system: Providencia stuartii CMX 640; details: CMX640; Providencia stuartii CMX 640; BHI agar, 20-24 h; read-out: MIC
Method: as §1, §2, §3, §4

[7] = system: Pseudomonas aeruginosa A5007
Method: as §1, §2, §3, §4

[8] = system: Pseudomonas aeruginosa BMH10; details: BHI agar, 20-24 h
Method: as §1, §2, §3, §4

[9] = system: Pseudomonas aeruginosa K799/61
Method: as §1, §2, §3, §4

[10] = system: Pseudomonas aeruginosa K799/WT
Method: as §1, §2, §3, §4

Pseudomonas cepacia 2961 = details: Burkholderia cepacia, BHI agar, 20-24 h, read-out: MIC
Method: as §1, §2, §3, §4

[11] = system: Staphylococcus aureus 45 RAR2; details: Staphylococcus aureus, 45RAR2, 24 h, BHI agar, 20-24 h
Method: as §1, §2, §3, §4

Staphylococcus aureus 45 = details: BHI agar, 20-24 h, read-out: MIC
Method: as §1, §2, §3, §4

[12] = system: Staphylococcus aureus A5177; details: Staphylococcus aureus A5177, BHI agar, 20-24 h
Method: as §1, §2, §3, §4

[13] = system: Staphylococcus aureus ATCC 6538P; details: Staphylococcus aureus, ATCC6538P, 24 h, BHI agar, 20-24 h
Method: as §1, §2, §3, §4

[14] = system: Staphylococcus epidermidis 3519; details: BHI agar, 20-24 h
Method: as §1, §2, §3, §4

[15] = system: Streptococcus agalactiae CMX 508; details: Streptococcus agalactiae, CMX508, 24 h, BHI agar, 20-24 h
Method: as §1, §2, §3, §4

[16] = system: Streptococcus bovis A5169; details: Streptococcus equinus, BHI agar, 20-24 h
Method: as §1, §2, §3, §4

[17] = system: Streptococcus pyrogenes 2548 INDUC; details: BHI agar, 20-24 h
Method: as §1, §2, §3, §4

[18] = system: Streptococcus pyrogenes EES61; details: BHI agar, 20-24 h, read-out: MIC
Method: as §1, §2, §3, §4

[19] = system: Staphylococcus aureus CMX 503A; details: Staphylococcus aureus, CMX503A, 24 h, BHI agar, 20-24 h, read-out: MIC
Method: as §1, §2
as §3, with “comparability. Erythromycin A was used for this purpose.” for “comparability.”
as §4

[20] = system: Staphylococcus aureus CMX 553; details: Staphylococcus aureus, CMX553, 24 h, BHI agar, 20-24 h, read-out: MIC
Method: as §1, §2
as §3, with “comparability. Erythromycin A was used for this purpose.” for “comparability.”
as §4

[21] = system: Staphylococcus aureus CMX 686B; details: CMX686B, BHI agar, 20-24 h, read-out: MIC
Method: as §1, §2
as §3, with “comparability. Erythromycin A was used for this purpose.” for “comparability.”
as §4

Acinetobacter SP CMX 669 = details: Acinetobacter, SPCMX669, 24 h
Method: as §1, §2, §3, §4

Escherichia coli H560 = details: Escherichia coli, H560, 24 h
Method: as §1, §2, §3, §4

SMILES	MIC [1]	MIC [2]	MIC (Escherichia coli DC-2)	MIC (Escherichia coli JUHL)	MIC [3]	MIC [4]	MIC [6]	MIC (Pseudomonas cepacia 2961)	MIC [11]	MIC (Staphylococcus aureus 45)	MIC [13]	MIC [15]	MIC [18]	MIC [19]	MIC [20]	MIC [21]	further results
CC[C@H]1OC(=O)[C@H](C)[C@@H](O[C@H]2C[C@@](C)(OC)[C@H](NC(=O)OCc3ccccc3)[C@H](C)O2)[C@H](C)[C@@H](O[C@@H]2O[C@H](C)C[C@H](N(C)C)[C@H]2O)[C@](C)(O)C[C@@H](C)[C@@H]2O[C@@]1(C)C(=O)[C@H]2C [Example 7, (4"R,9S)-9-Deoxo-4",11,12-trideoxy-9,12-epoxy-11-oxo-4"-[[(phenylmethoxy)carbonyl]amino]erythromycin A]	100 µg/mL (≈ 118 µM)	0.1 µg/mL (≈ 0.118 µM)	100 µg/mL (≈ 118 µM)	> 100 µg/mL	100 µg/mL (≈ 118 µM)	0.2 µg/mL (≈ 0.236 µM)	> 100 µg/mL	> 100 µg/mL	0.39 µg/mL (≈ 0.459 µM)	0.2 µg/mL (≈ 0.236 µM)	0.2 µg/mL (≈ 0.236 µM)	0.05 µg/mL (≈ 0.0589 µM)	0.1 µg/mL (≈ 0.118 µM)	0.2 µg/mL (≈ 0.236 µM)	0.2 µg/mL (≈ 0.236 µM)	0.2 µg/mL (≈ 0.236 µM)	MIC (Escherichia coli SS; read-out: MIC): 1.56 µg/mL (≈ 1.84 µM); MIC ([5]; ATCC9341, BHI agar, read-out: MIC): 0.05 µg/mL (≈ 0.0589 µM); MIC ([7]; Pseudomonas aeruginosa A5007, BHI agar, 20-24 h, read-out: MIC): > 100 µg/mL; MIC ([8]; read-out: MIC): 100 µg/mL (≈ 118 µM); MIC ([9]; Pseudomonas aeruginosa K799/61, BHI agar, 20-24 h, read-out: MIC): 0.78 µg/mL (≈ 0.919 µM); MIC ([10]; Pseudomonas aeruginosa K799/WT, BHI agar, 20-24 h, read-out: MIC): 100 µg/mL (≈ 118 µM); MIC ([12]; read-out: MIC): 0.39 µg/mL (≈ 0.459 µM); MIC ([14]; Staphylococcus epidermidis, 3519, 24 h): 0.39 µg/mL (≈ 0.459 µM); MIC ([16]; read-out: MIC): 0.1 µg/mL (≈ 0.118 µM); MIC ([17]; read-out: MIC): 0.39 µg/mL (≈ 0.459 µM)
CC[C@H]1OC(=O)[C@H](C)[C@@H](O[C@H]2C[C@@](C)(OC)[C@H](N)[C@H](C)O2)[C@H](C)[C@@H](O[C@@H]2O[C@H](C)C[C@H](N(C)C)[C@H]2O)[C@](C)(O)C[C@@H](C)[C@@H]2O[C@@]1(C)C(=O)[C@H]2C [Example 8, (4"R,9S)-4"-Amino-9-deoxo-4",11,12-trideoxy-9,12-epoxy 11-oxoerythromycin A]	> 100 µg/mL	0.05 µg/mL (≈ 0.0699 µM)	100 µg/mL (≈ 140 µM)	100 µg/mL (≈ 140 µM)	100 µg/mL (≈ 140 µM)	0.05 µg/mL (≈ 0.0699 µM)	> 100 µg/mL	> 100 µg/mL	0.2 µg/mL (≈ 0.28 µM)	0.2 µg/mL (≈ 0.28 µM)	0.2 µg/mL (≈ 0.28 µM)	0.02 µg/mL (≈ 0.028 µM)	0.01 µg/mL (≈ 0.014 µM)	0.2 µg/mL (≈ 0.28 µM)	0.1 µg/mL (≈ 0.14 µM)	0.2 µg/mL (≈ 0.28 µM)	MIC (Acinetobacter SP CMX 669): 6.2 µg/mL (≈ 8.67 µM); MIC (Escherichia coli H560): 25 µg/mL (≈ 35 µM); MIC (Escherichia coli SS; Escherichia coli, 24 h): 0.2 µg/mL (≈ 0.28 µM); MIC ([5]; Micrococcus luteus, ATCC9341, 24 h, BHI agar): 0.02 µg/mL (≈ 0.028 µM); MIC ([7]; Pseudomonas aeruginosa, A5007, 24 h): > 100 µg/mL; MIC ([8]; Pseudomonas aeruginosa, BMH10, 24 h): 100 µg/mL (≈ 140 µM); MIC ([9]; Pseudomonas aeruginosa, K799/61, 24 h): 0.78 µg/mL (≈ 1.09 µM); MIC ([10]; Pseudomonas aeruginosa, K799/WT, 24 h): > 100 µg/mL; MIC ([12]; Staphylococcus aureus, A5177, 24 h): 0.39 µg/mL (≈ 0.546 µM); MIC ([14]; read-out: MIC): 0.2 µg/mL (≈ 0.28 µM); MIC ([16]; A5169, 24 h): 0.05 µg/mL (≈ 0.0699 µM); MIC ([17]; Streptococcus, 2548INDUC, 24 h): 0.39 µg/mL (≈ 0.546 µM)
